{"source": "patent US20020132812A1", "about": "“Oral hypoglycaemic agents” (priority 2000, published 2002)", "key": {"[1]": {"system": "isolated perfused rat pancreas", "assay": "Insulin release from isolated perfused rat pancreas", "method": "The effect of the compounds of the invention on the insulin release from isolated perfused rat pancreas can be investigated as exemplified below with the title compound of Example 2 (compound (Ex 2). In the example described, the investigation is carried out at 2.8 mM and 8.3 mM glucose.\nMale Sprague Dawley rats (body weight around 300 g) were anaesthetised with a mixture of Hypnorm® (Janssen Pharma) and Dormicum® (Roche) and the pancreas was cannulated and isolated a described by Sturis et al., Am. J. Physiol. 269, E786-E792, 1995. The organ was placed at 37° C. in a humidified perfusion chamber and perfused with a […] gassed bicarbonated Krebs Ringer, 4% Dextran buffer from a pump delivering 71% of the total volume and from a pump delivering 29% volume of the same buffer with added BSA (0.2% final concentration) and glucose (2.8 mM or 8.3 mM final concentration). The 29% pump also delivered compund (Ex 2) at 10^−5 M in the interval t=20-40 min and at 10^−4 M in the interval t=60-80 min. The pancreata were acclimatised for 20 min before start of sampling at 1 fraction of ca 1900 μl/min for 100 min. Aliquots of 200 μl were frozen away at −20° C. for subsequent insulin ELISA using guinea pig anti-insulin antibodies. The results are shown in FIG. 7 and are expressed as fmol insulin released per pancreas per min. Each plot represents one pancreas, except 8.3 mM glucose alone mean of n=2. […] In the pancreas infused with 8.3 mM glucose and compound (Ex 2) there was an initial noise in the interval t=0-20 min which was due to a mechanical problem with the tubing. […] When 10^−4 M compound (Ex 2) was added at t=60 min there was a classic first-phase insulin release peaking at 3000 fmol/min, followed by second-phase release. […] We have evidence that non-reversal may be due to the low BSA concentration (0.2%) in the perfusate.\nIn the pancreas perfused with compound (Ex 2) at 2.8 mM glucose, the insulin secretion was only about 10% of that seen at 8.3 mM glucose (max. 250 fmol/min) with 10^−4 M compound (Ex 2) while the control pancreas secretion was flat at ca 20 fmol/min."}, "[2]": {"target": "T1, ATP-sensitive K+-channels (KATP-channels) (Mus musculus, UniProt Q61743)", "T1 construct": "Pancreatic islets were isolated from fed NMRI mice (15-23 g); endogenous in cells; host or cells: single beta-cells dispersed from pancreatic islets of NMRI mice", "T1 sequence (Q61743 whole entry)": "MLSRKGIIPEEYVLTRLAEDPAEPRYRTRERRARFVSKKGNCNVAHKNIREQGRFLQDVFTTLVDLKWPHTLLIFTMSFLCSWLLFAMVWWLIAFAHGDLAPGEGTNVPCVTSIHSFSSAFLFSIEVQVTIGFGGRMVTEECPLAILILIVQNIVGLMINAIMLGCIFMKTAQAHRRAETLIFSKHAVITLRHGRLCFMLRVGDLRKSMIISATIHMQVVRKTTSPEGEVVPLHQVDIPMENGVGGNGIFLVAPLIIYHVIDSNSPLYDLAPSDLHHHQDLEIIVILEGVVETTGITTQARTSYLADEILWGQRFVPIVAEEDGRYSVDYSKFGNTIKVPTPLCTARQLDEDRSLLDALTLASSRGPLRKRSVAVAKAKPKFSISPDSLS", "T1 sequence (B2RUS7 1-1588 partner)": "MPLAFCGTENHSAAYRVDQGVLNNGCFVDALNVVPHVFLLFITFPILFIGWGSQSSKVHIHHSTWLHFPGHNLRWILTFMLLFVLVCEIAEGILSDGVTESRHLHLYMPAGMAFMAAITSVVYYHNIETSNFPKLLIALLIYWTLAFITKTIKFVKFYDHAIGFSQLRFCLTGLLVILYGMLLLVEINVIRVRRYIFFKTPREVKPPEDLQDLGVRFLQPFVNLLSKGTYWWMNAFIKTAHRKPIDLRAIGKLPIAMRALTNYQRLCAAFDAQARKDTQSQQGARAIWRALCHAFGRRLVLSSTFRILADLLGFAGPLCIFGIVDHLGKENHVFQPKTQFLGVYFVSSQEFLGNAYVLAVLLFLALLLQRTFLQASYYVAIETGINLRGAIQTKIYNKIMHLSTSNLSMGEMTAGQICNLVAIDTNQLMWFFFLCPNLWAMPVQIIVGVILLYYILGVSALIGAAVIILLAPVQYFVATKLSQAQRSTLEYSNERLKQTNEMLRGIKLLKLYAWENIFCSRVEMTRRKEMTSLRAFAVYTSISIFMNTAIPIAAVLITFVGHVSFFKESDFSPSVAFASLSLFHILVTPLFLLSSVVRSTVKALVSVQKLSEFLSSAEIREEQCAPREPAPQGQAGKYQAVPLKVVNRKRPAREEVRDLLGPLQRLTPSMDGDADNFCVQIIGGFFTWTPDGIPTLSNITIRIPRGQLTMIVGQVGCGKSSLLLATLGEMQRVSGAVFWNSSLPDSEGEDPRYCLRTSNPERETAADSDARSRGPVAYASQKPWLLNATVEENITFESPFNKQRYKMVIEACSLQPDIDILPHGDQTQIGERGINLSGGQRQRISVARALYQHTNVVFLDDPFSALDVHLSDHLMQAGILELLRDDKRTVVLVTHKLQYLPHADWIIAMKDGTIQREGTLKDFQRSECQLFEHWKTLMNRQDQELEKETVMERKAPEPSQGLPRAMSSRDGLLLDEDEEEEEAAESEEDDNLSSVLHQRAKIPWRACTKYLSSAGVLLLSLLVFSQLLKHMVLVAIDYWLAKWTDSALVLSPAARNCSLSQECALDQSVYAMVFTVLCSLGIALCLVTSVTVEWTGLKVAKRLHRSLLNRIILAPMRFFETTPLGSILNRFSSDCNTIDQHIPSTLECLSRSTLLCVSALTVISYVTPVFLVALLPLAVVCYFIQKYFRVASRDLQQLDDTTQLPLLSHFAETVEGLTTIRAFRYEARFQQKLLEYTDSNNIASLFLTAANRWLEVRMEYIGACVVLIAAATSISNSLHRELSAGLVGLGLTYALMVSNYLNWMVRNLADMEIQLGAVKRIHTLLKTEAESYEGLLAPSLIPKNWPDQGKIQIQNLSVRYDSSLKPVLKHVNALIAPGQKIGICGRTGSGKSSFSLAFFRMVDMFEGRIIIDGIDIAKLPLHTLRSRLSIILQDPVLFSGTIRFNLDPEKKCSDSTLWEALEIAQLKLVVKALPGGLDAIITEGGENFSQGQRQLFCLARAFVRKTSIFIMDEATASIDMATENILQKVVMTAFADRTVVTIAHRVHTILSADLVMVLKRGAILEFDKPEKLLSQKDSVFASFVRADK", "assay": "Whole-cell ATP-sensitive K+ current (KATP-channel activity) in single mouse β-cells", "type": "cell-based", "settings": "100 μM compound; six experiments; cells dialysed with 0.3 mM ATP and 0.3 mM ADP", "source_text": "Pancreatic islets were isolated from fed NMRI mice (15-23 g). Briefly, the mice were stunned by a blow against the head and killed by cervical dislocation. The pancreas was quickly removed and pancreatic islets were isolated by collagenase (Sigma) digestion (Gromada et al. J. Physiol., Vol. 518 (3) pp. 745-759, 1999). For insulin release experiments, the islets were kept in RPMI-1640 tissue culture medium overnight before use. […]\nPatch pipettes were drawn from borosilicate glass capillaries. […] The currents were recorded using an Axopatch 200B patch clamp amplifier (Axon Instruments, Foster City, Calif., USA), digitized and stored in a computer using the Digidata AD-converter and the software pClamp (version 6.0; Axon Instruments). Alternatively, KATP-currents were recorded using an EPC-9 patch clamp amplifier and the Pulse software (v. 8.01; HEKA Elektronik, Lamprecht/Pfalz, Germany). Exocytosis was monitored as increases in cell membrane capacitance (Neher & Marty Proc. Natl. Acad, Sci. USA, Vol. 79, pp. 6712-6716,1982) using the standard whole-cell configuration of the patch-clamp technique and an EPC-9 patch-clamp amplifier and the Pulse software (v. 8.01; HEKA Elektronik). […]"}}, "note": "Several values for one entry are separate records, joined by “and”; a condition that tells them apart may be missing. Equal entries are not always repeated.", "data": [{"molecule": "COc1cccc(C(CC2=NCCN2)c2ccccn2)c1", "note": "(single isomer, unassigned; (-)) [compound (Ex 2), (−)-2-(2-(4,5-Dihydro-1H-imidazol-2-yl)-1-(3-methoxyphenyl)ethyl)pyridine]", "values": [{"measurement": "insulin secretion, max.", "setting": "[1]; 2.8 mM glucose, 10^-4 M compound, control pancreas ca 20 fmol/min", "value": 250, "unit": "fmol/min"}, {"measurement": "first-phase insulin release, peak", "setting": "[1]; 8.3 mM glucose, 10^-4 M compound added at t=60 min, 8.3 mM glucose alone 300 up to ca 700 fmol/min", "value": 3000, "unit": "fmol/min"}, {"measurement": "effect on insulin secretion (in words)", "setting": "[1]; 8.3 mM glucose, 10^-5 M compound, t=20-40 min", "value": "small increase in insulin secretion"}, {"measurement": "insulin secretion at 2.8 mM glucose as share of that seen at 8.3 mM glucose", "setting": "[1]; 10^-4 M compound", "value": "about 10%"}, {"measurement": "whole-cell KATP current / channel activity, % of prestimulatory level", "setting": "[2]", "value": "90±4% and 90+4%"}]}]}
